Data from patent US20210253575A1, “PYRROLIDINE AMINE COMPOUNDS FOR THE TREATMENT OF AUTOIMMUNE DISEASE” (Hoffmann-La Roche Inc., priority 2018, published 2021).

The compounds below were run against T1, human TLR9 (Homo sapiens, UniProt Q9NR96) (assay: HEK293-Blue-hTLR-9 cells assay (SEAP reporter, ODN2006 stimulation)). Conditions: HEK293-Blue-hTLR9 cells, ODN2006 ligand, 20 hrs incubation.
T1 sequence (Q9NR96 26-1032): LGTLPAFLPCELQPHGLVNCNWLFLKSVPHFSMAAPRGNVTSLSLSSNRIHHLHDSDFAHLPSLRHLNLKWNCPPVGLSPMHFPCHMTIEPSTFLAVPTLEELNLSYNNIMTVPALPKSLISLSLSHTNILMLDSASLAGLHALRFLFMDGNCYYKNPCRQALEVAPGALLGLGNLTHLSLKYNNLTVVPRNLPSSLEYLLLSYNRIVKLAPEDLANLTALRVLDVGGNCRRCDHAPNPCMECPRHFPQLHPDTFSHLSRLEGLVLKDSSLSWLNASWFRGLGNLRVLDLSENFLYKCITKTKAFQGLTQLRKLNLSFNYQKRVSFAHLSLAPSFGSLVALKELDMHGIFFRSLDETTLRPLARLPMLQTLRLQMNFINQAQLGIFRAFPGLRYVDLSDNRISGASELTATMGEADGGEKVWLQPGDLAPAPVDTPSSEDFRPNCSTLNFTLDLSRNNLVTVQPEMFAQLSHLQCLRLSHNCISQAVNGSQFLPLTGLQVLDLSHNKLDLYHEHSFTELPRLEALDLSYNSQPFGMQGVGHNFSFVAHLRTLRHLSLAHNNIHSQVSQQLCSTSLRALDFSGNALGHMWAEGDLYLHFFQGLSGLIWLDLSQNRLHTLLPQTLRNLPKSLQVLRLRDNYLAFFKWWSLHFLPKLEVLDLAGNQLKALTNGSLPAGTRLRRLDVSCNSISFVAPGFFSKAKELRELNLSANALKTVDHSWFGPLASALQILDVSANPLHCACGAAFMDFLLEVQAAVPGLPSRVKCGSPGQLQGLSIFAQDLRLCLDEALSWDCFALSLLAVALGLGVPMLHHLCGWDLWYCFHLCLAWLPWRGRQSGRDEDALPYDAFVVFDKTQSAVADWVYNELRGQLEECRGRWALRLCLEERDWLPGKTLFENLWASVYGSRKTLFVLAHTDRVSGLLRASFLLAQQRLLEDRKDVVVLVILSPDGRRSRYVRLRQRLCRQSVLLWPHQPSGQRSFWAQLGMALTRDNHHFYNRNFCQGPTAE
Format: cell-based
Description: The following tests were carried out in order to determine the activity of the compounds of formula (I) in HEK293-Blue-hTLR-7/8/9 cells assay.
HEK293-Blue-hTLR-9 Cells Assay:
A stable HEK293-Blue-hTLR-9 cell line was purchased from InvivoGen (Cat. #: hkb-htlr9, San Diego, Calif., USA). These cells were originally designed for studying the stimulation of human TLR9 by monitoring the activation of NF-κB. A SEAP (secreted embryonic alkaline phosphatase) reporter gene was placed under the control of the IFN-β minimal promoter fused to five NF-κB and AP-1-binding sites. The SEAP was induced by activating NF-κB and AP-1 via stimulating HEK-Blue hTLR9 cells with TLR9 ligands. Therefore the reporter expression was declined by TLR9 antagonist under the stimulation of a ligand, such as ODN2006 (Cat. #: tlrl-2006-1, Invivogen, San Diego, Calif., USA), for incubation of 20 hrs. The cell culture supernatant SEAP reporter activity was determined using QUANTI-Blue™ kit (Cat. #: rep-qb1, Invivogen, San Diego, Calif., USA) at a wavelength of 640 nm, a detection medium that turns purple or blue in the presence of alkaline phosphatase.
HEK293-Blue-hTLR9 cells were incubated at a density of 250,000˜450,000 cells/mL in a volume of 170 μL in a 96-well plate in Dulbecco's Modified Eagle's medium (DMEM) containing 4.5 g/L glucose, 50 U/mL penicillin, […], […], 2 mM L-glutamine, 10% (v/v) heat-inactivated fetal bovine serum with addition of 20 μL test compound in a serial dilution in the presence of final DMSO at 1% and 10 μL of 20 uM ODN2006 in above DMEM, perform incubation under 37° C. in a CO2incubator for 20 hrs. Then 20 μL of the superatant from each well was incubated with 180 μL Quanti-blue substrate solution at 37° C. for 2 hrs and the absorbance was read at 620˜655 nm using a spectrophotometer. The signalling pathway that TLR9 activation leads to downstream NF-κB activation has been widely accepted, and therefore similar reporter assay was modified for evaluating TLR9 antagonist.
N#Cc1ccc(N2CC(CN3CCC4(CCNCC4)CC3)C3(CC3)C2)c2nccnc12 (centres unmarked) [Example 16, 8-[7-(3,9-Diazaspiro[5.5]undecan-3-ylmethyl)-5-azaspiro[2.4]heptan-5-yl]quinoxaline-5-carbonitrile] was tested, and the IC50 was 50 nM. N#Cc1ccc(N2C[C@H](CN3CCC4(CCCNC4)CC3)[C@@H](C(F)(F)F)C2)c2nccnc12 [Example 45, 8-[(3S,4R)-3-(2,9-diazaspiro[5.5]undecan-9-ylmethyl)-4-(trifluoromethyl)pyrrolidin-1-yl]quinoxaline-5-carbonitrile] showed an IC50 of 224 nM. For N#Cc1ccc(N2CC(CN3CC4(CCCNC4)C3)C3(CC3)C2)c2nccnc12 (centres unmarked) [Example 24, 8-[7-(2,8-Diazaspiro[3.5]nonan-2-ylmethyl)-5-azaspiro[2.4]heptan-5-yl]quinoxaline-5-carbonitrile], the IC50 was 82 nM. For N#Cc1ccc(N2CC(CN3CCC4(CC3)CNCCO4)C3(CC3)C2)c2nccnc12 (centres unmarked) [Example 49, 8-[7-(1-Oxa-4,9-diazaspiro[5.5]undecan-9-ylmethyl)-5-azaspiro[2.4]heptan-5-yl]quinoxaline-5-carbonitrile], the IC50 was 87 nM. Work on N#Cc1ccc(N2C[C@@H](CN3CCC4(CCNCC4)CC3)[C@H](C3CC3)C2)c2cccnc12 (relative stereo) [Example 28, 5-[Trans-3-cyclopropyl-4-(3,9-diazaspiro[5.5]undecan-3-ylmethyl)pyrrolidin-1-yl]quinoline-8-carbonitrile] yielded an IC50 of 39 nM. Compound N#Cc1ccc(N2C[C@H](CN3CCC(CN)CC3)[C@@H](C(F)(F)F)C2)c2nccnc12 [Example 74, 8-[(3S,4R)-3-[[4-(aminomethyl)-1-piperidyl]methyl]-4-(trifluoromethyl)pyrrolidin-1-yl]quinoxaline-5-carbonitrile] has an IC50 of 325 nM. In the case of CC(C)[C@@H]1CN(c2ccc(C#N)c3ncccc23)C[C@H]1CN1CCC2(CCNCC2)CC1 (relative stereo) [Example 36, 5-[Trans-3-(3,9-diazaspiro[5.5]undecan-3-ylmethyl)-4-isopropyl-pyrrolidin-1-yl]quinoline-8-carbonitrile], the IC50 is reported as 50 nM. In the case of N#Cc1ccc(N2C[C@H](CN3CCC4(CC3)CNCCO4)[C@@H](C(F)(F)F)C2)c2nccnc12 [Example 70, 8-[(3S,4R)-3-(1-oxa-4,9-diazaspiro[5.5]undecan-9-ylmethyl)-4-(trifluoromethyl)pyrrolidin-1-yl]quinoxaline-5-carbonitrile], the IC50 is reported as 253 nM. CN(C)C[C@@H]1CCN(C[C@H]2CN(c3ccc(C#N)c4nccnc34)C[C@@H]2C(F)(F)F)C1 [Example 82, 8-[(3S,4R)-3-[[(3S)-3-[(dimethylamino)methyl]pyrrolidin-1-yl]methyl]-4-(trifluoromethyl)pyrrolidin-1-yl]quinoxaline-5-carbonitrile] gave an IC50 of 304 nM. Compound N#Cc1ccc(N2C[C@H](CN3CC4CCC(C3)C4N)[C@@H](C(F)(F)F)C2)c2nccnc12 (stereo partly drawn) [Example 73, 8-[(3S,4R)-3-[(8-amino-3-azabicyclo[3.2.1]octan-3-yl)methyl]-4-(trifluoromethyl)pyrrolidin-1-yl]quinoxaline-5-carbonitrile] has an IC50 of 1190 nM. For N#Cc1ccc(N2C[C@H](CN3CCC(N)C(F)(F)C3)[C@@H](C(F)(F)F)C2)c2nccnc12 (stereo partly drawn) [Example 64, 8-[(3S,4R)-3-[(4-amino-3,3-difluoro-1-piperidyl)methyl]-4-(trifluoromethyl)pyrrolidin-1-yl]quinoxaline-5-carbonitrile], the IC50 was 23100 nM. In the case of CN(C)C1CCN(C[C@H]2CN(c3ccc(C#N)c4nccnc34)C[C@@H]2C(F)(F)F)CC1 [Example 80, 8-[(3S,4R)-3-[[4-(dimethylamino)-1-piperidyl]methyl]-4-(trifluoromethyl)pyrrolidin-1-yl]quinoxaline-5-carbonitrile], the IC50 is reported as 706 nM. CC(C)[C@@H]1CN(c2ccc(C#N)c3ncccc23)C[C@H]1CN1CCC2(CCNC2)C1 (relative stereo) [Example 44, 5-[Trans-3-(2,7-diazaspiro[4.4]nonan-2-ylmethyl)-4-isopropyl-pyrrolidin-1-yl]quinoline-8-carbonitrile] was tested, and the IC50 was 91 nM. With N#Cc1ccc(N2CC(CN3CCC(N)CC3)C3(CC3)C2)c2nccnc12 (single isomer, unassigned) [Example 68A, 8-[7-[(4-Amino-1-piperidyl)methyl]-5-azaspiro[2.4]heptan-5-yl]quinoxaline-5-carbonitrile] the IC50 was 71 nM. Work on N#Cc1ccc(N2CC(CN3CCC(N4CCOCC4)CC3)C3(CC3)C2)c2nccnc12 (centres unmarked) [Example 58, 8-[7-[(4-Morpholino-1-piperidyl)methyl]-5-azaspiro[2.4]heptan-5-yl]quinoxaline-5-carbonitrile] yielded an IC50 of 605 nM. For N#Cc1ccc(N2CC(CN3CCC4(CCNCC4)C3)C3(CC3)C2)c2nccnc12 (centres unmarked) [Example 32, 8-[7-(2,8-Diazaspiro[4.5]decan-2-ylmethyl)-5-azaspiro[2.4]heptan-5-yl]quinoxaline-5-carbonitrile], the IC50 was 80 nM. N#Cc1ccc(N2CC(CN3CC4(CC(N)C4)C3)C3(CC3)C2)c2nccnc12 (centres unmarked) [Example 42, 8-[7-[(6-Amino-2-azaspiro[3.3]heptan-2-yl)methyl]-5-azaspiro[2.4]heptan-5-yl]quinoxaline-5-carbonitrile] was tested, and the IC50 was 153 nM. With N#Cc1ccc(N2C[C@H](CN3CCC(N4CCCC4)CC3)[C@@H](C(F)(F)F)C2)c2nccnc12 [Example 60, 8-[(3S,4R)-3-[(4-Pyrrolidin-1-yl-1-piperidyl)methyl]-4-(trifluoromethyl)pyrrolidin-1-yl]quinoxaline-5-carbonitrile] the IC50 was 509 nM. For N#Cc1ccc(N2CC(CN3CCC4(CCCNC4)C3)C3(CC3)C2)c2nccnc12 (centres unmarked) [Example 22, 8-[7-(2,9-Diazaspiro[4.5]decan-2-ylmethyl)-5-azaspiro[2.4]heptan-5-yl]quinoxaline-5-carbonitrile], the IC50 was 153 nM. In the case of N#Cc1ccc(N2C[C@H](CN3CCC(N)CC3)[C@@H](C(F)(F)F)C2)c2nccnc12 [Example 26, 8-[(3S,4R)-3-[(4-Amino-1-piperidyl)methyl]-4-(trifluoromethyl)pyrrolidin-1-yl]quinoxaline-5-carbonitrile], the IC50 is reported as 258 nM. With CC1(N)CCN(C[C@H]2CN(c3ccc(C#N)c4nccnc34)C[C@@H]2C(F)(F)F)CC1 [Example 12, 8-[(3S,4R)-3-[(4-amino-4-methyl-1-piperidyl)methyl]-4-(trifluoromethyl)pyrrolidin-1-yl]quinoxaline-5-carbonitrile] the IC50 was 219 nM. N#Cc1ccc(N2C[C@@H](CN3CCC4(CCNC4)C3)[C@H](C(F)F)C2)c2cccnc12 (relative stereo) [Example 34, 5-[Trans-3-(2,7-diazaspiro[4.4]nonan-2-ylmethyl)-4-(difluoromethyl)pyrrolidin-1-yl]quinoline-8-carbonitrile] was tested, and the IC50 was 85 nM. N#Cc1ccc(N2C[C@H](CN3CCC4(CCNCC4)CC3)[C@@H](C(F)(F)F)C2)c2nccnc12 [Example 1, 8-[(3S,4R)-3-(3,9-diazaspiro[5.5]undecan-3-ylmethyl)-4-(trifluoromethyl)pyrrolidin-1-yl]quinoxaline-5-carbonitrile] showed an IC50 of 106 nM.
